Experimental data from ChEMBL document CHEMBL3525928 (Drug Metab Dispos, 2011).
Each block holds one compound with its values, some of them ahead of it.

What was measured:
Hepatocyte [1] = assay: Drug uptake in sandwich-cultured human hepatocytes lot Hu4165 at 0.05 uM at 37 degC for 5 mins by scintillation spectroscopy in presence of 500 uM digoxin (1% DMSO) cardiac glycosides (reference value: 100 +/- 3.1 to 100 +/- 7.0%); assay type: ADME, cell-based
Hepatocyte [2] = settings: human, hepatocytes, 5 min, 0.05 µM
Hepatocyte [3] = settings: human, hepatocytes, 5 min, 0.05 µM; remark: listed apart in the source
Hepatocyte [4] = settings: human, hepatocytes, 5 min, 0.05 µM; remark: listed apart in the source
Hepatocyte [5] = settings: human, hepatocytes, 1 µM
[6] = Drug uptake in sandwich-cultured human hepatocytes at 0.05 to 10 uM at 37 degC by Michaelis-Menten kinetics/scintillation spectroscopy; assay type: ADME, cell-based, Hepatocyte
Hepatocyte [7] = assay: Drug uptake in sandwich-cultured human hepatocytes lot Hu4165 at 0.05 uM at 37 degC for 5 mins by scintillation spectroscopy in presence of 100 uM digoxin cardiac glycosides (reference value: 100 +/- 3.1 to 100 +/- 7.0%); assay type: ADME, cell-based
Hepatocyte [8] = settings: human, hepatocytes, 5 min, 0.05 µM; remark: listed apart in the source
Hepatocyte [9] = settings: human, hepatocytes, 5 min, 0.05 µM; remark: listed apart in the source
Hepatocyte [10] = settings: human, hepatocytes, 5 min, 0.05 µM; remark: listed apart in the source
Hepatocyte [11] = assay: Uptake clearance in sandwich-cultured human hepatocytes lot Hu4165 […] measured per mg of protein at 0.05 to 1 uM at 37 degC after 0.5 to 2 mins by scintillation spectroscopy in presence of 100 uM rifamycin SV; assay type: ADME, cell-based
Hepatocyte [12] = settings: human, hepatocytes, 5 min, 0.05 µM; remark: listed apart in the source
Hepatocyte [13] = assay: Uptake clearance in sandwich-cultured human hepatocytes measured per mg of protein at 0.05 to 10 uM at 37 degC by scintillation spectroscopy; assay type: ADME, cell-based
Hepatocyte [14] = assay: Drug uptake in sandwich-cultured human hepatocytes at 0.05 uM at 37 degC by scintillation spectroscopy; assay type: ADME, cell-based
[15] = Drug uptake in rat hepatocytes; assay type: ADME, cell-based, Hepatocyte
Hepatocyte [16] = settings: human, hepatocytes, 5 min, 0.05 µM; remark: listed apart in the source
Hepatocyte [17] = assay: Drug uptake in sandwich-cultured human hepatocytes lot Hu4165 at 0.05 uM at 37 degC for 5 mins by scintillation spectroscopy in presence of 100 uM rifampicin OATP substrate/inhibitor (reference value: 100 +/- 3.1 to 100 +/- 7.0%); assay type: ADME, cell-based; set-up: interact cpd dose 100 uM
[18] = Drug excretion in urine (unknown origin); assay type: ADME, tissue-based; settings: human, read-out: Drug excretion
Hepatocyte [19] = settings: human, hepatocytes, 5 min, 0.05 µM; remark: listed apart in the source
Hepatocyte [20] = settings: human, hepatocytes, 5 min, 0.05 µM; remark: listed apart in the source
Hepatocyte [21] = settings: human, hepatocytes, 5 min, 0.05 µM; remark: listed apart in the source
Hepatocyte [22] = assay: Drug uptake in sandwich-cultured human hepatocytes measured per mg of protein at 0.05 uM at 4 degC after 5 mins by scintillation spectroscopy; assay type: ADME, cell-based
Hepatocyte [23] = assay: Drug uptake in sandwich-cultured human hepatocytes lot Hu4165 at 0.05 uM at 37 degC for 5 mins by scintillation spectroscopy in presence of 100 uM BSP A OATP and […] inhibitor (reference value: 100 +/- 3.1 to 100 +/- 7.0%); assay type: ADME, cell-based; set-up: interact cpd dose 100 uM
Hepatocyte [24] = settings: human, hepatocytes, 5 min, 0.05 µM; remark: listed apart in the source
Hepatocyte [25] = settings: human, hepatocytes, 5 min, 0.05 µM; remark: listed apart in the source
Hepatocyte [26] = assay: Drug uptake in sandwich-cultured human hepatocytes lot Hu4165 at 0.05 uM at 37 degC for 5 mins by scintillation spectroscopy in presence of 50 uM FCCP mitochondrial uncouplers (reference value: 100 +/- 3.1 to 100 +/- 7.0%); assay type: ADME, cell-based; set-up: interact cpd dose 50 uM
Hepatocyte [27] = settings: human, hepatocytes, 5 min, 0.05 µM; remark: listed apart in the source
Hepatocyte [28] = assay: Uptake clearance in sandwich-cultured human hepatocytes lot Hu4165 […] measured per mg of protein at 0.05 to 1 uM at 37 degC on day 5 by scintillation spectroscopy; assay type: ADME, cell-based
[29] = Drug excretion in bile (unknown origin); assay type: ADME, tissue-based; settings: human, read-out: Drug excretion
Hepatocyte [30] = assay: Drug uptake in sandwich-cultured human hepatocytes measured per mg of protein at 0.05 uM at 37 degC after 5 mins by scintillation spectroscopy; assay type: ADME, cell-based
Hepatocyte [31] = settings: human, hepatocytes, 1 µM; remark: listed apart in the source
Hepatocyte [32] = assay: Drug uptake in sandwich-cultured human hepatocytes measured per mg of protein at 0.05 to 10 uM at 37 degC by Michaelis-Menten kinetics/scintillation spectroscopy; assay type: ADME, cell-based
OATP1B3 [33] = target: T1, OATP1B3 (Homo sapiens, UniProt Q9NPD5); assay: Drug uptake ratio assessed as enzyme-mediated uptake in HEK293 cells expressing human OATP1B3 at 10 uM at 37 degC for 3 mins cells pretreated with sodium butyrate by liquid scintillation spectroscopy relative to wild type; assay type: ADME, cell-based
T1 sequence (Q9NPD5 whole entry): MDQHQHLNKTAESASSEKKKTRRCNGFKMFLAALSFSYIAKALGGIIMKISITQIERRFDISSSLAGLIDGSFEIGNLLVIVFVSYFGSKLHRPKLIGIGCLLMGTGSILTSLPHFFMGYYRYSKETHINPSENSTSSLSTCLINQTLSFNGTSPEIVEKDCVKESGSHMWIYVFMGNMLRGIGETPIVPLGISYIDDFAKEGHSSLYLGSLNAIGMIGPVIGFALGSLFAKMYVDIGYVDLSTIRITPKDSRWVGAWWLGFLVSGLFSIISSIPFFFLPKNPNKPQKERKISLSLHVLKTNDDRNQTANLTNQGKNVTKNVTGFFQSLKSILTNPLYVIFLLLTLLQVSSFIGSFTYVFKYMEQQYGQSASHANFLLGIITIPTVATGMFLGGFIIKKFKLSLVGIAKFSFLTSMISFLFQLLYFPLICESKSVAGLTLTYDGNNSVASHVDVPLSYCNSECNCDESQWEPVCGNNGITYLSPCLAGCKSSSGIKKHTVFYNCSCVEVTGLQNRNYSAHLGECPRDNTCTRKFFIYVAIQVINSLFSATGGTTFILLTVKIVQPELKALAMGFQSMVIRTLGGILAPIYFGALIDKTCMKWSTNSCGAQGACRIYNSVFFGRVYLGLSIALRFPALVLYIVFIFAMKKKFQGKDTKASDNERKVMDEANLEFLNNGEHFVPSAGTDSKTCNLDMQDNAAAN

OATP1B3 [34] = target: T1, OATP1B3; assay: Drug uptake ratio assessed as enzyme-mediated uptake in HEK293 cells expressing human OATP1B3 at 1 uM at 37 degC for 3 mins cells pretreated with sodium butyrate by liquid scintillation spectroscopy relative to wild type; assay type: ADME, cell-based
OATP1B3 [35] = target: T1, OATP1B3; assay: Drug uptake ratio assessed as enzyme-mediated uptake in HEK293 cells expressing human OATP1B3 at 10 uM at 37 degC for 3 mins by liquid scintillation spectroscopy relative to wild type; assay type: ADME, cell-based
OATP1B3 [36] = target: T1, OATP1B3; assay: Drug uptake ratio assessed as enzyme-mediated uptake in HEK293 cells expressing human OATP1B3 at 1 uM at 37 degC for 3 mins by liquid scintillation spectroscopy relative to wild type; assay type: ADME, cell-based

Drug uptake (Hepatocyte [1]): 55.5%
Drug uptake (Hepatocyte [2]): 115%
Drug uptake (Hepatocyte [3]): 79.2%
Drug uptake (Hepatocyte [4]): 163%
CLup (Hepatocyte [5]): 1.88 µL/min/g
Km at up to 10 µM [6]: 2.39 µM
Drug uptake (Hepatocyte [7]): 48.9%
Drug uptake (Hepatocyte [8]): 158%
Drug uptake (Hepatocyte [9]): 50.5%
Drug uptake (Hepatocyte [10]): 87.4%
CLup (Hepatocyte [11]): 4.53 µL/min/g
Drug uptake (Hepatocyte [12]): 63.1%
CLup (Hepatocyte [13]): 1.88 µL/min/g
Drug uptake (Hepatocyte [14]): Active
Km [15]: 0.18 µM
Drug uptake (Hepatocyte [16]): 110%
Drug uptake (Hepatocyte [17]): 120%
dose excreted [18]: 50%
Drug uptake (Hepatocyte [19]): 67.5%
Drug uptake (Hepatocyte [20]): 45%
Drug uptake (Hepatocyte [21]): 89.9%
Drug uptake (Hepatocyte [22]): 1.33 fmol/min
Drug uptake (Hepatocyte [23]): 113%
Drug uptake (Hepatocyte [24]): 114%
Drug uptake (Hepatocyte [25]): 90.5%
Drug uptake (Hepatocyte [26]): 63.8%
Drug uptake (Hepatocyte [27]): 55.4%
CLup (Hepatocyte [28]): 3.6 µL/min/g
dose excreted [29]: 30%
Drug uptake (Hepatocyte [30]): 153 fmol/min
CLup (Hepatocyte [31]): 4.06 µL/min/g
Vmax (Hepatocyte [32]): 4.49 pmol/min
Structure (SMILES): C[C@H]1O[C@@H](O[C@H]2[C@@H](O)C[C@H](O[C@H]3[C@@H](O)C[C@H](O[C@H]4CC[C@@]5(C)[C@H](CC[C@@H]6[C@@H]5C[C@@H](O)[C@]5(C)[C@@H](C7=CC(=O)OC7)CC[C@]65O)C4)O[C@@H]3C)O[C@@H]2C)C[C@H](O)[C@@H]1O [DIGOXIN]

Structure (SMILES): C[C@]12CC[C@@H]3c4ccc(O)cc4CC[C@H]3[C@@H]1CC[C@@H]2O[C@@H]1O[C@H](C(=O)O)[C@@H](O)[C@H](O)[C@H]1O [ESTRADIOL 17B GLUCURONIDE]
uptake ratio at 0.05 h, 10 µM (OATP1B3 [33]): 78
uptake ratio at 0.05 h, 1 µM (OATP1B3 [34]): 74
uptake ratio at 0.05 h, 10 µM (OATP1B3 [35]): 116
uptake ratio at 0.05 h, 1 µM (OATP1B3 [36]): 87
